Data set [1] is described as follows: Examination of bioavailability in humans: absorption of 55Fe-labelled iron compound and 59Fe-labelled native iron from iron-fortified buns. It counts as in vivo. Particulars: for Absorption, Fortification: fortification iron (55Fe). The protocol:
The examination was carried out by the technique described in the above-mentioned paper by Hallberg et al.
The iron compound to be tested is labelled with radioactive iron, ^55 Fe, in the synthesis of the compound used. This iron is used to fortify flour from which buns are made by standard procedures, for example as follows: ______________________________________ Ingredients Parts by weight ______________________________________ wheat-flour 100 sugar 3.5 salt 1.0 yeast 6.5 water 83 iron source 6.5 ^- 10^-3 ______________________________________
The iron occurring naturally (native iron) in wheat-flour is labelled by adding tracer amounts of ^59 Fe-labelled iron(III)chloride. The buns are thus made of flour which is labelled with two different radioactive isotopes.
The ingredients are mixed, and the dough is allowed to rise for 30 minutes. After the usual kneading, the dough is placed in small aluminium baking tins where the dough pieces are allowed to rise for another 30 minutes. The dough pieces in the baking tins are subsequently baked at a temperature of 250° C. for 10 minutes
These double-labelled buns are served a group of test subjects, for breakfast with coffee, margarine and marmalade two successive mornings after a night's fast. No food or beverage is allowed for three hours after breakfast. Two weeks after the last breakfast, blood tests are made to measure the occurrence of ^55 Fe and ^59 Fe in blood. Furthermore,the totally absorbed amount of ^59 Fe in the body is measured by a so-called total-body counter Via the ratio of ^59 Fe to ^55 Fe in blood samples, also the totally absorbed amount of ^55 Fe can be determined.
Subsequently, a reference solution is administered, consisting of ^59 Fe-labelled iron(II)sulphate and ascorbic acid at two successive breakfasts after a night's fast. No food or beverage is allowed for three hours thereafter. Another two weeks later, a new total-body measurement is made to measure the absorption of the reference dose. The reference solution is administered to make it possible to carry out corrections with regard to differences in the iron absorbing capability of the different test subjects.
The amount of ^59 Fe which is added as ^59 FeCl3 to the wheat-flour, isotope-labels by so-called isotopic exchange all biologically available nonheme iron (=non-blood iron) in the meals analysed, i.e. on the one hand the native iron and, on the other hand, the part of the fortification iron which is dissolved. However, that part of the fortification iron which is not dissolved in the gastrointestinal tract, is not labelled. […]

For data set [2] the following is noted: humans; literature or background statement; cited from earlier work.
Data set [3] is described as follows: Solubility in artificial gastric environment (0.1M HCl, pH 1, 37° C.). It counts as physicochemical. Conditions: for % Solubility 10 min / % Solubility 30 min / % Solubility 60 min: 0.1M HCl, pH=1, 37° C.; for solubility at pH 1 / in 0.1M HCl / gastric environment (in words): pH 1 (0.1M HCl). How it is done: Here, solubility tests for some commercially used iron(III)phosphates have also been included.
The compound examined in Example 1 was also measured as a reference substance (compound A)

Setting [4] is: 40 g buns, 0.2 mg native iron, 2.2 mg fortification iron, ten persons.

“Also recorded” adds a separate entry of the source.

Regarding `O=P([O-])([O-])[O-].[Fe+3]` [Common iron(III)phosphate, iron(III)phosphate, reference compound], the “Absorption, Fortification” value in data set [1] (60 g buns, 0.5 mg native iron, 3 mg fortification iron, ten persons) was found to be 1.1%.
As for `O=S(=O)([O-])[O-].[Fe+2]` [iron(II)sulphate], the absorbability / bioavailability entry in data set [2] was “highest absorbability; also recorded: high bioavailability in the human body”.
For `O=P([O-])([O-])[O-].[Fe+3]` [iron(III)orthophosphate], the absorbability / bioavailability result in data set [2] is recorded as “questionable in respect to the bioavailability of iron”.
On to `O=P([O-])([O-])OP(=O)([O-])O.[Fe+2].[Na+]` [sodium iron pyrophosphate], for which the absorbability / bioavailability result in data set [2] is recorded as “questionable in respect to the bioavailability of iron”.
As for “Fe3 H8 (NH4)(PO4)6 .multidot.6H2 O [Compound A]”, in data set [1] (setting [4]), the “Relative bioavailability 55Fe/59Fe” value is on record as 0.63 ± 0.04 and the “Absorption, Fortification” value worked out at 3.3%. The “bioavailability (in words)” value in data set [1] (humans) is “far better bioavailability than both the commercial fortifying agent which is to date most frequently used, i.e. iron powder, and the known commercial fortifying agent which, in structural respect, is its closest relation, i.e. common iron(III)phosphate”. In data set [3], the “% Solubility 10 min” value was 86%, the “% Solubility 30 min” value turned out to be 100% and the “% Solubility 60 min” value is listed as 100%.
For “Fe3 H8 K(PO4)6 .multidot.6H2 O [Compound E]”, in data set [3], the “% Solubility 10 min” value was determined as 5%; the “% Solubility 30 min” value was 39%; the “% Solubility 60 min” value is reported as 72%; the “solubility at pH 1 / in 0.1M HCl / gastric environment (in words)” value is listed as “low initial solubility but reached, after some time, relatively good values”.
Taken in the same sequence, the figures for “Fe5 H8 Na4 (PO4)9 .multidot.10H2 O [Compound C]” were 70%, 93%, 100% and “approximately the same good solubility properties as the ammonium-containing compound A”.
For “FeH2 Na(PO4)2 .multidot.0.5H2 O [Compound D]”, in that order: 61%, 92%, 100% and “approximately the same good solubility properties as the ammonium-containing compound A”.
Taken in the same sequence, the figures for “FeH5 Na(PO4)3 .multidot.H2 O [Compound B]” were 82%, 97%, 100% and “approximately the same good solubility properties as the ammonium-containing compound A”.

(Values after patent publication US4931292A, “Method of preparing iron(III) phosphate compounds for iron fortification of food products” (EKA Nobel AB, priority 1986, dated 1990).)
